Experiments:
Format in all cases: cell-based
[1] = tested on: Jeko cells; assay: 3-day CellTiter Glow combination study in Jeko cells with wild-type or mutant CARD11; settings: FIG. 6
Procedure: Jeko cells, a MCL cell line, and OCI-Ly3, a DLBCL cell line, were used for this experiment.
In summary, 10,000 cells were plated into 96-well plates and treated with different concentrations of inhibitors. 3 days later, CellTiter Glow reagent was added into the wells and the luminescent signals were measured.

[2] = tested on: OCI-LY-10; assay: Combined drug treatment cell viability, CellTiter-Glo assay (Example 2); settings: 3 days
[3] = tested on: HBL-1; assay: as above; settings: 3 days
[4] = tested on: TMD8; assay: as above; settings: 3 days
[5] = tested on: OCI-LY-3; assay: as above; settings: 3 days
[6] = tested on: U2932; assay: as above; settings: 3 days
[7] = tested on: SU-DHL-2; assay: as above; settings: 3 days
[8] = ibrutinib 0 nM, JAK3 10 μM / MCL-1 3 μM alone
[9] = ibrutinib 0.0512 nM, JAK3 10 μM / MCL-1 3 μM / medium alone
[10] = ibrutinib 0.256 nM, JAK3 10 μM / MCL-1 3 μM / medium alone
[11] = ibrutinib 1.28 nM, JAK3 10 μM / MCL-1 3 μM / medium alone
[12] = ibrutinib 6.4 nM, JAK3 10 μM / MCL-1 3 μM / medium alone
[13] = ibrutinib 32 nM, JAK3 10 μM / MCL-1 3 μM / medium alone
[14] = ibrutinib 160 nM, JAK3 10 μM / MCL-1 3 μM / medium alone
[15] = ibrutinib 800 nM, JAK3 10 μM / MCL-1 3 μM / medium alone
[16] = ibrutinib 20000 nM, JAK3 10 μM / MCL-1 3 μM / medium alone
[17] = ibrutinib 40000 nM, JAK3 10 μM / MCL-1 3 μM / medium alone

SMILES: CC(C)C[C@H](NC(=O)[C@H](Cc1ccccc1)NC(=O)c1cnccn1)B(O)O [Velcade]
- sensitization of Jeko cells containing the mutant CARD11 to ibrutinib treatment [1]: sensitized

SMILES: C[C@@H]1CCN(C(=O)CC#N)C[C@@H]1N(C)c1ncnc2[nH]ccc12 [tofacitinib]
- luminescence (CellTiter-Glo) [2, 8]: 55820.26
- luminescence (CellTiter-Glo) [2, 9]: 51855.78
- luminescence (CellTiter-Glo) [2, 10]: 42984.83
- luminescence (CellTiter-Glo) [2, 11]: 35330.40
- luminescence (CellTiter-Glo) [2, 12]: 19547.86
- luminescence (CellTiter-Glo) [2, 13]: 13432.93
- luminescence (CellTiter-Glo) [2, 14]: 13583.65
- luminescence (CellTiter-Glo) [2, 15]: 14159.61
- luminescence (CellTiter-Glo) [2, 16]: 14383.00
- luminescence (CellTiter-Glo) [2, 17]: 14751.73
- luminescence (CellTiter-Glo) [3, 8]: 78088.40
- luminescence (CellTiter-Glo) [3, 9]: 48007.16
- luminescence (CellTiter-Glo) [3, 10]: 49532.94
- luminescence (CellTiter-Glo) [3, 11]: 56756.95
- luminescence (CellTiter-Glo) [3, 12]: 46403.61
- luminescence (CellTiter-Glo) [3, 13]: 47226.84
- luminescence (CellTiter-Glo) [3, 14]: 41745.82
- luminescence (CellTiter-Glo) [3, 15]: 37551.94
- luminescence (CellTiter-Glo) [3, 16]: 17614.87
- luminescence (CellTiter-Glo) [3, 17]: 39380.73
- luminescence (CellTiter-Glo) [4, 8]: 42085.03
- luminescence (CellTiter-Glo) [4, 9]: 22758.56
- luminescence (CellTiter-Glo) [4, 10]: 22844.02
- luminescence (CellTiter-Glo) [4, 11]: 23722.74
- luminescence (CellTiter-Glo) [4, 12]: 22806.63
- luminescence (CellTiter-Glo) [4, 13]: 23770.82
- luminescence (CellTiter-Glo) [4, 14]: 23674.67
- luminescence (CellTiter-Glo) [4, 15]: 21620.76
- luminescence (CellTiter-Glo) [4, 16]: 6463.53
- luminescence (CellTiter-Glo) [4, 17]: 19962.15
- luminescence (CellTiter-Glo) [5, 8]: 60068.93
- luminescence (CellTiter-Glo) [5, 9]: 52005.22
- luminescence (CellTiter-Glo) [5, 10]: 56590.84
- luminescence (CellTiter-Glo) [5, 11]: 49371.84
- luminescence (CellTiter-Glo) [5, 12]: 52737.31
- luminescence (CellTiter-Glo) [5, 13]: 47894.25
- luminescence (CellTiter-Glo) [5, 14]: 42659.67
- luminescence (CellTiter-Glo) [5, 15]: 54193.44
- luminescence (CellTiter-Glo) [5, 16]: 59782.00
- luminescence (CellTiter-Glo) [5, 17]: 45217.97
- luminescence (CellTiter-Glo) [6, 8]: 74370.91
- luminescence (CellTiter-Glo) [6, 9]: 61632.23
- luminescence (CellTiter-Glo) [6, 10]: 61314.09
- luminescence (CellTiter-Glo) [6, 11]: 61987.79
- luminescence (CellTiter-Glo) [6, 12]: 58424.16
- luminescence (CellTiter-Glo) [6, 13]: 57921.57
- luminescence (CellTiter-Glo) [6, 14]: 55595.72
- luminescence (CellTiter-Glo) [6, 15]: 54213.58
- luminescence (CellTiter-Glo) [6, 16]: 24327.81
- luminescence (CellTiter-Glo) [6, 17]: 54924.70
- luminescence (CellTiter-Glo) [7, 8]: 133588.4
- luminescence (CellTiter-Glo) [7, 9]: 154568.4
- luminescence (CellTiter-Glo) [7, 10]: 167037.0
- luminescence (CellTiter-Glo) [7, 11]: 171896.5
- luminescence (CellTiter-Glo) [7, 12]: 165146.8
- luminescence (CellTiter-Glo) [7, 13]: 173773.3
- luminescence (CellTiter-Glo) [7, 14]: 165414.5
- luminescence (CellTiter-Glo) [7, 15]: 167444.0
- luminescence (CellTiter-Glo) [7, 16]: 2706.8
- luminescence (CellTiter-Glo) [7, 17]: 164389.1

Source: patent US9730938B2, “Bruton's tyrosine kinase inhibitor combinations and uses thereof” (Pharmacyclics LLC, priority 2014, dated 2017)
